Source: patent publication US20090215708A1, “Treatment of Sexual Dysfunction with Proton Pump Agonists” (priority 2008, published 2009)

Tests used:
[1] = test system: subject diagnosed with Female Sexual Arousal Disorder (FSAD); assay: Daily oral fusicoccin in a subject with Female Sexual Arousal Disorder; assay type: in vivo, human; conditions: daily oral formulation
Text: A subject who has been diagnosed with Female Sexual Arousal Disorder (FSAD) for over 6 months is given a daily oral formulation of fusicoccin, at a dose sufficient to maintain therapeutic blood levels of the agent. […] The use of this preparation is well accepted by both the subject and partner.

[2] = test system: proton pump (plasma membrane H+ ATPases); conditions: plants; cited from earlier work
[3] = test system: subject with sexual dysfunction related to penis size below the 10th percentile; assay: Daily oral cinchomeronic acid in a subject with penis size below the 10th percentile; assay type: in vivo, human
Text: A subject who has reported long-term sexual dysfunction related to a penis size below the 10th percentile is given an oral formulation of cinchomeronic acid, at a daily dose sufficient to maintain therapeutic blood levels of the agent.

Compound | adverse side effects [1] | symptoms, including lubrication-swelling response during sexual activity ([1]; one week after beginning treatment) | proton pumping across the plasma membrane [2] | adverse side effects [3] | penile circumference and length compared to before treatment ([3]; two months after beginning treatment)
C=CC(C)(C)OC[C@H]1O[C@H](O[C@@H]2C3=C([C@H](C)COC(C)=O)C[C@H](O)[C@]3(C)/C=C3/[C@@H](COC)CC[C@H]3[C@@H](C)[C@H]2O)[C@H](O)[C@@H](OC(C)=O)[C@@H]1O [fusicoccin] | without adverse side effects | significant improvement in symptoms | activate | – | –
O=C(O)c1ccncc1C(=O)O [cinchomeronic acid, 3,4-dicarboxypyridine] | – | – | – | no adverse side effects | measurable increase
